The values below are quoted from earlier work in patent US20100047803A1, “BIOMARKERS FOR ACETAMINOPHEN TOXICITY” (priority 2008, published 2010).

The subject of data set [1] is CYP2E1, CYP1A2, and CYP3A4. To be noted: by CYP2E1, CYP1A2, and CYP3A4.
The conditions of data set [2]: administration after hepatic failure has developed.

For the molecule `CC(=O)Nc1ccc(O)cc1` [acetaminophen, Acetaminophen], the “share of acetaminophen converted to NAPQI” value in data set [1] was 5 to 9%.

For the molecule `CC(=O)N[C@@H](CS)C(=O)O` [N-acetylcysteine], in data set [2], the reduction in mortality is recorded as 21-28%.
